# In publication PMC4030628 (Cancer research, 2013):
# Target: STAT3 (Homo sapiens, UniProt P40763)
# Assay: fluorescence polarization competition with 5-FAM-GpYLPQTV phosphopeptide
# Assay type: binding
# Chain of STAT3 (P40763 2-770): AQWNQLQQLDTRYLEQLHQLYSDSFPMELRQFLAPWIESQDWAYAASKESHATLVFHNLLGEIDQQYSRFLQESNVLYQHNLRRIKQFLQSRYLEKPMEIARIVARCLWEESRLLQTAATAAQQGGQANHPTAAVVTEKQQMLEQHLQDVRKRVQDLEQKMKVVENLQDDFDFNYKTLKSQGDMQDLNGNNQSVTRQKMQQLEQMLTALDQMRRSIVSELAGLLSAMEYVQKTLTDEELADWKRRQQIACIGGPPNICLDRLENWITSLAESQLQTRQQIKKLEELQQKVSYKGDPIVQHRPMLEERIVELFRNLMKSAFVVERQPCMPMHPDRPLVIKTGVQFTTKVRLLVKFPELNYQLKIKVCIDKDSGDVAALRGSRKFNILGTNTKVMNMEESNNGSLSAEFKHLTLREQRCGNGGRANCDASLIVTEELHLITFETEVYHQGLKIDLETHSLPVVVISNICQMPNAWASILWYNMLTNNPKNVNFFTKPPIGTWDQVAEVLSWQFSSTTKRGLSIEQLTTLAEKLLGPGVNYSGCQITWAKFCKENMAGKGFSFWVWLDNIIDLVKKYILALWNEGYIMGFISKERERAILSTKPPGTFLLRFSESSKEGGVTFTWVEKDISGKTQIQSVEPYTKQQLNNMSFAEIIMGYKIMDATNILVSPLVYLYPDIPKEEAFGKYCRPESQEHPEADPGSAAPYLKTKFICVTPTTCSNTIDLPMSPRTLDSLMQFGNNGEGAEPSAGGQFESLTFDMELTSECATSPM
substance,measurement,value
S3I-1757,IC50,13.5 ± 0.5 µM
